Results: patent publication US9643951B2, “Compound having somatostatin receptor agonistic activity and pharmaceutical use thereof” (ONO PHARMACEUTICAL CO., LTD., priority 2013, dated 2017)
One block for each compound: values may come before it.

Columns and labels:
[1] = biological target: T1, human SSTR2 (Homo sapiens, UniProt P30874); assay: Evaluation of SSTR2 agonistic activity using cells expressing human SSTR2 (suppression of forskolin-stimulated cAMP production, SSTR2-CHO-K1); format: cell-based
T1 construct: Myc; expressed in transfected cells
Experimental: Evaluation of SSTR2 Agonistic Activity Using Cells Expressing Human SSTR2
(1) Isolation of Human SSTR2 Gene
Human brain cDNA was purchased from Ambion (catalogue No.: 7962; Lot No.: 040200121). PCR primers, hSSTR2_F1_XhoI: 5′-[…]-3′ (SEQ ID NO: 1) and hSSTR2_R1_EcoRI: 5′-[…]-3′ (SEQ ID NO: 2) were designed on the basis of the sequence GenBank NM_001050.
PCR reaction (95° C. for 2 min.→[98° C. for 10 sec., 60° C. for 30 sec. and 68° C. for 90 sec.]×30 cycles) was carried out using the human brain cDNA as a template and using KOD-plus-(TOYOBO Co., Ltd.). The amplified PCR product was subjected to 1% agarose gel electrophoresis, purified using QIAquick Gel Extraction Kit (QIAGEN) and digested with restriction enzymes XhoI and EcoRI. The digested fragments were ligated to an expression vector (pIRESneo-Myc) using the DNA Ligation Kit Ver. 2 (Takara) and used for transformation of E. coli DH5a. The plasmid pIRESneo-Myc/hSSTR2 was prepared and the DNA sequence thereof was confirmed.
(2) Culture of CHO-K1 Cells
CHO-K1 (−) was cultured in Ham's F-12 medium (containing foetal bovine serum (10%), penicillin (100 U/mL) and streptomycin (0.1 mg/mL)). The transduced cells were cultured in the same medium supplemented with Geneticin (1 mg/mL).
(3) Transduction of CHO-K1 Cells
CHO-K1(−) cells were transduced with the plasmid pIRESneo-Myc/hSSTR2 using Lipofectamine 2000 (Invitrogen). After 48 hours, selection was carried out by replacing the medium with the one containing 1 mg/mL of Geneticin to establish a stable overexpressing cell line (SSTR2-CHO-K1).
(4) Evaluation of SSTR2 Agonistic Activity
The human SSTR2 agonistic activity of a test compound was evaluated according to the following procedures by using a suppression activity of intracellular cyclic AMP (cAMP) production by forskolin stimulation as an index. SSTR2-CHO-K1 cells suspended in Ham's F-12 medium (containing foetal bovine serum (10%), penicillin (100 U/mL) and streptomycin (0.1 mg/mL)) supplemented with 0.25 mg/mL of Geneticin were inoculated into a 96-well plate at a density of 4.0×10^4 cells/0.1 mL per well. On the next day, the medium was removed and washed twice with 0.1 mL of wash buffer [0.1% bovine serum albumin (BSA), 20 mmol/L 4-(2-hydroxyethyl)-1-piperazineethane sulphonic acid (HEPES)-containing Hank's balanced salt solution (HBSS)]. An assay buffer [[…] 3-isobutyl-1-methylxanthine (IBMX), 0.1% BSA, 20 mmol/L HEPES-containing HBSS] was added to the wells at 0.06 mL per well and the plate was incubated for 15 minutes under the conditions of 5% carbon dioxide and 37° C. Thereafter, an assay buffer containing a test compound at a concentration twice as high as the final concentration and 0.02 mmol/L of forskolin was added to wells at 0.06 mL per well and the plate was incubated for 30 minutes under the conditions of 5% carbon dioxide and 37° C. Thereafter, the Assay/Lysis buffer included in the cAMP-Screen® kit (available from Applied Biosystems) was added to wells at 0.12 mL per well and the plate was incubated for 30 minutes under the conditions of 5% carbon dioxide and 37° C. The concentration of cAMP in samples were measured by ELISA according to the instruction of the kit.

[2] = tested on: growth hormone (GH) secretion; assay: Evaluation of suppression of growth hormone (GH) secretion using rats (GHRH-induced); format: in vivo
Experimental: Evaluation of Suppression of Growth Hormone (GH) Secretion Using Rats
[Procedure (A): Administration of a Test Compound 30 Minutes Beforehand]
A medium (distilled water (Otsuka distilled water, Otsuka Pharmaceutical Factory, […]) IGS rats (Charles River Laboratories Japan, Inc.)) and after 27 minutes, the animals were administered with 50 mg/kg of pentobarbital sodium (Somnopentyl, Kyoritsu Seiyaku Corporation) via the tail vein for anaesthesia. Three minutes after administration of pentobarbital sodium, the rats were administered with 0.01 mg/kg of growth hormone-releasing hormone (GHRH, Bachem) via the tail vein to induce GH secretion. In order to measure the blood GH concentration, 0.2 mL of blood was collected through the jugular vein at 5 minutes after administration of GHRH. The collected blood was centrifuged at 4° C., 13,000×g for 5 minutes to obtain plasma. The blood GH concentration was measured by using Rat/Mouse Growth Hormone ELISA (Millipore) following the instruction of the kit. The percentage (%) of suppression of GH secretion was determined by using the obtained blood GH concentration and the equation {[suppression (%) of GH secretion]=([blood GH concentration of the group administered with the medium]−[blood GH concentration of the group administered with a test compound])/[blood GH concentration of the group administered with the medium]×100}. In the equation, the group administered with the medium represents the group of animals administered with the medium and the group administered with a test compound represents the group of animals administered with a test compound dissolved in the medium.
[Procedure (B): Administration of a Test Compound 8 Hours Beforehand]
A medium (distilled water (Otsuka distilled water, Otsuka Pharmaceutical Factory, […]) IGS rats (Charles River Laboratories Japan, Inc.)) and after 7 hours and 57 minutes, the animals were administered with 50 mg/kg of pentobarbital sodium (Somnopentyl, Kyoritsu Seiyaku Corporation) via the tail vein for anaesthesia. Three minutes after administration of pentobarbital sodium, the rats were administered with 0.01 mg/kg of growth hormone-releasing hormone (GHRH, Bachem) via the tail vein to induce GH secretion. The rest of the procedure is the same as in [Procedure (A)] described above.

[3] = Evaluation of cytotoxicity using cultured human hepatocytes (intracellular ATP); format: cell-based; details: read-out: IC50 of cytotoxicity (concentration at which 50% of the luminescence is suppressed)
Experimental: Evaluation of Cytotoxicity Using Cultured Human Hepatocytes
Frozen adhesive human hepatocytes were thawed, suspended in a hepatocellular medium (HCM) purchased from Lonza and inoculated to a 96-well plate coated with collagen. The culture medium of the hepatocytes cultured overnight in an incubator (5% carbon dioxide, 95% air, 37° C.) was exchanged to the medium containing a test compound at a concentration of 0, 12.5, 25, 50, 100, 200 or 400 (×10^−6 mol/L) and the cells were further cultured for 24 hours. Cytotoxicity was evaluated by measuring the intracellular ATP concentration. Specifically, using the Promega Celltiter-Glo luminescent assay kit available from Promega, cells were lysed in the assay buffer included in the kit and the concentration of ATP released from the cells was measured according to the luminescence resulting from luciferin-luciferase enzyme activity. The luminescence was measured on the SpectraMax plate reader from Molecular Devices. The extent of cytotoxicity of a test compound is represented by the concentration (IC50) of the compound at which 50% of the luminescence is suppressed.

[4] = Human hepatic microsome stability test; format: in vitro ADME; details: human hepatic microsomes 1 mg/mL; 60 minutes; test compound 0.001 mmol/L; 37° C.
Experimental: Human Hepatic Microsome Stability Test
To a reaction vessel heated to 37° C. in a water bath, 0.392 mL of phosphate buffer (0.1 mol/L, pH 7.4) containing human hepatic microsomes (1 mg/mL, Xenotech) and NADPH-Co-factor (NADP+1.3 mmol/L, BD-Bioscience) was added and pre-incubated for 5 minutes. A 50% acetonitrile solution (0.008 mL) containing 0.05 mmol/L of a test compound was added thereto to initiate the enzyme reaction (final concentration of the test compound: 0.001 mmol/L). Immediately after initiation of the reaction and at 60 minutes thereafter, 0.050 mL of the reaction solution was respectively collected, which was immediately added to an acetonitrile solution (0.2 mL) containing an internal standard (45 nmol/L, 1-[3-(3,5-dimethylphenyl)-4-quinolinyl]-4-piperidineamine) to terminate the enzyme reaction.
The residual rate (%), which is indicative of stability of the test compound, was calculated using the ratio of peak areas between the test compound and the internal substance determined by LC/MS/MS (TSQ Quantum Discovery MAX, Thermo) analysis of the sample thus prepared by the above procedures followed by filtration, and the equation: {[residual rate (%)=[peak area of a test compound in a sample at 60 minutes after initiation of the reaction/peak area of the internal standard]/[peak area of the test compound in the sample immediately after initiation of the reaction/peak area of the internal standard]×100}.

[5] = biological target: somatostatin receptor subtype 2 (SSTR2) (Homo sapiens, UniProt P30874); details: reported; cited from earlier work
[6] = biological target: somatostatin receptor subtype 3 (SSTR3) (Homo sapiens, UniProt P32745); details: reported; cited from earlier work
[7] = biological target: somatostatin receptor subtype 1 (SSTR1) (Homo sapiens, UniProt P30872); details: reported; cited from earlier work
[8] = biological target: somatostatin receptor subtype 4 (SSTR4) (Homo sapiens, UniProt P31391); details: reported; cited from earlier work
[9] = tested on: gastric acid secretion; assay: Evaluation of suppression of gastric acid secretion using rats (pyloric ligation); format: in vivo; details: continuous intravenous administration at 1 mcg (microgram)/kg/h

T1 sequence (P30874 whole entry): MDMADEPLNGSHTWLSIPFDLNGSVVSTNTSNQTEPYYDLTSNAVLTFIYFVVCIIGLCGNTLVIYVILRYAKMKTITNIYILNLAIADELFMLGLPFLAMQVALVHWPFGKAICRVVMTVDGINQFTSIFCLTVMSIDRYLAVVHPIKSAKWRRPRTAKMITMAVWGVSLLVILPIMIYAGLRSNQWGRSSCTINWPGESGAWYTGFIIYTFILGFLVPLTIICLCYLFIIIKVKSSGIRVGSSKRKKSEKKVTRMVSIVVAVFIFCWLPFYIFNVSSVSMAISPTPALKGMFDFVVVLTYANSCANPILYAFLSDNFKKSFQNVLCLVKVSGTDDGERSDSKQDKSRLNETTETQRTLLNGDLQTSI
Sequence of somatostatin receptor subtype 2 (SSTR2) (P30874 whole entry, species assumed): as the sequence (P30874 whole entry) above
Sequence of somatostatin receptor subtype 3 (SSTR3) (P32745 whole entry, species assumed): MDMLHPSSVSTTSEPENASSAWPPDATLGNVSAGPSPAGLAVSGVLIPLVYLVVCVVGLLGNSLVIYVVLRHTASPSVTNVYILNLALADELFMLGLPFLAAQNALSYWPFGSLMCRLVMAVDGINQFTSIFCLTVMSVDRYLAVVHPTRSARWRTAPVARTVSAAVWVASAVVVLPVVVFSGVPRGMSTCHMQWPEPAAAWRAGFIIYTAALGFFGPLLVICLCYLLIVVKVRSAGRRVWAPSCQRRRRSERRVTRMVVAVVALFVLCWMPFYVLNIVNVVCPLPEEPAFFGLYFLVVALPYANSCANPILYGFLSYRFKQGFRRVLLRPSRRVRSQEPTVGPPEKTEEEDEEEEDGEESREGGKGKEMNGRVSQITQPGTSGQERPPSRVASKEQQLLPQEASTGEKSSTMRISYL
Sequence of somatostatin receptor subtype 1 (SSTR1) (P30872 whole entry, species assumed): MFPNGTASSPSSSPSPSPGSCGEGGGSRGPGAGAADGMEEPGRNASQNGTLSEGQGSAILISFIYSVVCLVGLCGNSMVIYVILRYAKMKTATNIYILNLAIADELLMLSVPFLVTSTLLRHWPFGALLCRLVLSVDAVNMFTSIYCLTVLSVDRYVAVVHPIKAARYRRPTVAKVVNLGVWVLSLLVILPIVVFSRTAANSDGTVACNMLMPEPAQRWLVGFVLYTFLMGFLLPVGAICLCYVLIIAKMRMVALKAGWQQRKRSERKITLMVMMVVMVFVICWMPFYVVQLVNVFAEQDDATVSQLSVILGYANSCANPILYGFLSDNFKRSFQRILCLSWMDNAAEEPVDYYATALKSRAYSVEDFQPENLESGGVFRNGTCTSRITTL
Sequence of somatostatin receptor subtype 4 (SSTR4) (P31391 whole entry, species assumed): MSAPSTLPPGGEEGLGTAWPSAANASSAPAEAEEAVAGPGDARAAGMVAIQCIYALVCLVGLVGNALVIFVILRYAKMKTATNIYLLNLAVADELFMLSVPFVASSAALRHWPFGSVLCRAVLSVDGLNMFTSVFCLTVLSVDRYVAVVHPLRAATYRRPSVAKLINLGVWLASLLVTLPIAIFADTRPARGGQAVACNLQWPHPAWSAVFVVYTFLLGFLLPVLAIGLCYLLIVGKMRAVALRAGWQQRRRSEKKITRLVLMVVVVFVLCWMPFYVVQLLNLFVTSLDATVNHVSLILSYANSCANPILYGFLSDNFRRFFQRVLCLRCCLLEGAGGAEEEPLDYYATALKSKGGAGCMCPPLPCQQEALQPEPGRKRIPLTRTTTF

EC50 [1]: 0.00026 µM
residual rate [4]: 92.9%
Compound: COc1ccc(F)cc1C(=O)Nc1cncc(-c2cc(Cl)cc(Cl)c2)c1N1CCC(N)CC1 [Example 7(1), N-[4-(4-amino-1-piperidinyl)-5-(3,5-dichlorophenyl)-3-pyridinyl]-5-fluoro-2-methoxybenzamide]
inhibition in vivo at 3 mg/kg ([2]; Rattus norvegicus, Procedure (B): oral administration 8 hours beforehand, 3 mg/kg, read-out: percentage of suppression of GH secretion): 88%
IC50 at 24 h [3]: 34 µM

EC50 [1]: 0.00034 µM
residual rate [4]: 100.0%
Compound: NC1CCN(c2c(NC(=O)c3cccc(Cl)c3)cncc2-c2cc(F)cc(Cl)c2)CC1 [Example 7, N-[4-(4-amino-1-piperidinyl)-5-(3-chloro-5-fluorophenyl)-3-pyridinyl]-3-chlorobenzamide]
inhibition in vivo at 10 mg/kg ([2]; Rattus norvegicus, Procedure (B): oral administration 8 hours beforehand, 10 mg/kg, read-out: percentage of suppression of GH secretion): 93%
IC50 at 24 h [3]: 74 µM

Compound: CC(C)[C@@H]1NC(=O)[C@H](CCCCN)NC(=O)[C@@H](Cc2c[nH]c3ccccc23)NC(=O)[C@H](Cc2ccc(O)cc2)NC(=O)[C@@H](NC(=O)[C@H](N)Cc2ccc3ccccc3c2)CSSC[C@@H](C(=O)N[C@H](C(N)=O)[C@@H](C)O)NC1=O [lanreotide acetate]
binding affinity to SSTR2 [5]: high affinity
binding affinity to SSTR3 [6]: moderate affinity
binding to SSTR1 [7]: do not bind
binding to SSTR4 [8]: do not bind

Compound: C[C@@H](O)[C@@H]1NC(=O)[C@H](CCCCN)NC(=O)[C@@H](Cc2c[nH]c3ccccc23)NC(=O)[C@H](Cc2ccccc2)NC(=O)[C@@H](NC(=O)[C@H](N)Cc2ccccc2)CSSC[C@@H](C(=O)N[C@H](CO)[C@@H](C)O)NC1=O [octreotide, reference compound]
suppression of GH secretion ([2]; Procedure (A): 30 minutes beforehand, 0.003 mg/kg by subcutaneous administration): 98%
percentage of suppression of gastric acid secretion [9]: 39%
